Key:
[1] = system: L929 cells; assay: Cell proliferation (BrdU incorporation); format: cell-based
Experimental: 2000 L929 cells (ECACC no: 85011425) per well were seeded in a 96 well plate in full medium (containing 10% foetal calf serum) or starvation medium (serum-free). Peptides, ErbB1 kinase inhibitor PD153035 (Calbiochem), and EGF (Sigma-Aldrich) were added immediately after seeding of the cells (for experiments done in full serum) or after 8 hours of incubation (for experiments done in starvation medium) in the concentrations indicated in figures. Cells were grown for 6 hours, then 10 μM bromodeoxyuridine (BrdU) was added, and cells were grown for additional 18 hours. Then, BrdU incorporation in the cells was assayed using the Biotrak ELISA System, version 2 from Amersham Biosciences Europe GmbH (Buckinghamshire, UK) following the manufacturer's protocol.

[2] = system: L929 cells; assay: Cell motility assay (time-lapse video recording); format: cell-based
Experimental: Subconfluent L929 cells were infected with Ad5.CMV-GFP virus according to the manufacturer instruction (Clontech). 24 h after transfection, cells were seeded at a density of 4×10^3 cells/cm^2 and grown for 24 h. Cells were then treated with the indicated concentration of peptide and EGF, and cell positions were recorded every 15 min at 25 fixed positions in each culture for 4 hours using automatic time-lapse video recording. The workstation employed comprised an Eclipse TE300 inverted microscope (Nikon, Japan) equipped with a heated, movable, computer controlled microscope stage. Recordings were performed using the PRIGRA software (developed at the Protein Laboratory, Copenhagen, Denmark).
Analysis of individual cell motility was performed using an automatic procedure for single cell motility evaluation. Briefly, automatic marking of cell positions in consecutive video frames was used for determination of the migration tracks of the cells during the whole recording period. The obtained cell coordinate data were used for the calculation of motility parameters by means of the ‘complex overlapping’ method. Briefly, the mean squared cell displacement, ? d^2 ? , was calculated as the Euclidean distance between two points corresponding to the initial and final position of the cell. The rate of diffusion, R, was calculated by fitting the curve of ? d^2 ? plotted against time to the equation ? d^2(ti) ? =R(τ−P(1−e^(−τ/P))), • where ti is the time interval of interest, τ is the time interval between observations, i.e. 15 min, and P is the persistence time in direction (28). The mean cell speed, Sτ, was calculated as the mean cell displacement taking place between discrete observations ( ? dτ ? ) divided by the time interval between discrete observations (τ), according to the equation:
[formula] • The mean cell-path-length, ? L ? , for a sample of a population of cells at a given time of observation, was calculated as:
[formula] • The locomotive index, LI, was calculated as the ratio of the mean cell displacement and the mean cell-path-length:
[formula] LI was used as a measure of the directional persistence of the cells.

[3] = target: T1, ErbB1 (Homo sapiens, UniProt P00533); assay: ErbB receptor phosphorylation, NR6 wtEGFR cells; format: cell-based; parameters: expressed in transfected cells; host or cells: NR6 fibroblastoid cells (NR6 wtEGFR); details: 10 ng/ml EGF for 10 min, immunoblotting (FIG. 7)
Experimental: The cells employed for this assay were NR6 wtEGFR cells, which are fibroblastoid cells stably transfected with ErbB1, and human head and neck tumor-derived HN5 cell. Confluent NR6 wtEGFR or HN5 cells were treated with peptide in the indicated concentrations for 30 min, then stimulated with 10 ng/ml EGF (Sigma-Aldrich, St. Louis, Mo., USA) for 10 min. Cells were lysed in lysis buffer (1% (v/v) Triton X-100, 150 mM NaCl, 10 mM Tris pH 7.4, 1 mM EDTA, 1 mM EGTA, 0.5% (v/v) NP-40, phosphatase inhibitors (Phosphatase Inhibitor Cocktail Set II from Calbiochem, La Jolla, Calif., USA) and protease inhibitors (Complete™ Protease Inhibitor Cocktail from Boehringer Mannheim Biochemica, Mannheim, Germany)), and cleared lysate samples containing equal amounts of total protein (as determined by a bicinchoninic acid assay (Pierce, Rockford, Ill., USA)) were subjected in duplicates to 4-12% SDS-PAGE and immunoblotting. […] The intensity of bands was quantified using densitometric analysis employing the software package GeneTools (Syngene, Cambridge, UK).
NR6 wtEGFR cells (a fibroblastoid cell line stably transfected with ErbB1) were treated with peptide in the indicated concentrations for […], then stimulated with 10 ng/ml EGF for 10 min. […] The intensity of bands was quantified using densitometric analysis employing the software package GeneTools (Syngene, Cambridge, UK).

[4] = system: HN5 cells; assay: Cell viability / cell growth (MTS staining); format: cell-based, human; details: HN5 cells
Experimental: 2000 HN5 cells per well were seeded in a 96 well plate in full medium (containing 10% fetal calf serum) or starvation medium (serum-free). After 12 hours of incubation, peptides or ErbB1 kinase inhibitor PD153035 (Calbiochem) and/or EGF (Sigma-Aldrich) were added in the concentrations indicated in figures. Cells were grown for 72 hours, then 20 μl MTS One Solution Reagent (Promega, Madison, Wis., USA) were added per 100 μl culture medium in each well, and the plates were incubated for 1-2 hours at 37° C., followed by absorbance measurements at 490 nm.

[5] = target: T1, ErbB1; assay: ErbB receptor phosphorylation, HN5 cells; format: cell-based; parameters: the ErbB1 overexpressing human head and neck cancer cell line HN5; endogenous in cells; host or cells: HN5 human head and neck cancer cells; details: 100 μM peptide for 30 min, 10 ng/ml EGF for 10 min (FIG. 8)
Experimental: The cells employed for this assay were NR6 wtEGFR cells, which are fibroblastoid cells stably transfected with ErbB1, and human head and neck tumor-derived HN5 cell. Confluent NR6 wtEGFR or HN5 cells were treated with peptide in the indicated concentrations for 30 min, then stimulated with 10 ng/ml EGF (Sigma-Aldrich, St. Louis, Mo., USA) for 10 min. Cells were lysed in lysis buffer (1% (v/v) Triton X-100, 150 mM NaCl, 10 mM Tris pH 7.4, 1 mM EDTA, 1 mM EGTA, 0.5% (v/v) NP-40, phosphatase inhibitors (Phosphatase Inhibitor Cocktail Set II from Calbiochem, La Jolla, Calif., USA) and protease inhibitors (Complete™ Protease Inhibitor Cocktail from Boehringer Mannheim Biochemica, Mannheim, Germany)), and cleared lysate samples containing equal amounts of total protein (as determined by a bicinchoninic acid assay (Pierce, Rockford, Ill., USA)) were subjected in duplicates to 4-12% SDS-PAGE and immunoblotting. One membrane was probed with anti-phospho-EGFR (phosphotyrosine 1068) antibody (Cell Signaling Technology, Danvers, Mass., USA), the other with anti-EGFR antibody (Cell Signaling Technology). Detection was carried out using horseradish peroxidase (HRP)-conjugated secondary antibodies (DAKO, Denmark) and enhanced chemiluminiscence (Pierce). The intensity of bands was quantified using densitometric analysis employing the software package GeneTools (Syngene, Cambridge, UK).

LVYNKLTFQLEPNPHTK (Inherbin 3 peptide) [Inherbin3]
effect on EGF-induced cell proliferation ([1]; L929 cells, full medium, BrdU incorporation (FIG. 2, FIG. 3)): able to inhibit EGF-induced cell proliferation significantly | inhibition of the EGF-induced effects ([1]; summary for cell proliferation, cell motility and ErbB1 phosphorylation in cells with a lower ErbB1 expression level): ~100% | effect on mean cell speed ([2]; L929 cells (FIG. 5C)): did not significantly affect the mean cell speed | effect on locomotive index, LI ([2]; L929 cells (FIG. 5D)): reflected the changes seen in rate of diffusion | effect on rate of diffusion, R ([2]; L929 cells, absence of EGF, peptide dose 10 μM (FIG. 5B)): stimulated the rate of diffusion to the level of the EGF-induced response | effect on EGF-induced increase in rate of diffusion, R ([2]; L929 cells, with EGF (FIG. 5B)): significantly inhibited | effect on EGF-induced increase in rate of diffusion, R ([2]; L929 cells, with EGF, peptide dose 40 μM (FIG. 5B)): completely blocked the EGF-induced increase in rate of diffusion | effect on EGF-induced ErbB1 phosphorylation [3]: inhibited EGF-induced ErbB1 phosphorylation significantly | effect on serum-induced cell growth ([4]; full medium containing 10% serum (FIG. 6B)): inhibited serum-induced cell growth | inhibition of the EGF-induced increase in cell growth ([4]; starvation medium, EGF-stimulated, 3 days, MTS (FIG. 6A)): ~35% | effect on basal cell growth ([4]; starvation medium, without EGF-stimulation (FIG. 6A)): no effect on the basal cell growth | effect on EGF-induced ErbB1 phosphorylation [5]: significantly inhibited EGF-induced ErbB1 phosphorylation
